Entries after “also recorded” stand apart in the source; their conditions may differ.
Key:
Format in all cases: cell-based, human
HOS cells [1] = experiment: Conventional 96-well chemosensitivity testing of HOS cells grown under pressure, de-pressurized, trypsinized and reattached 24 h (Alamar blue); settings: tested at atmospheric pressure, p<0.05; for difference in the ED50 between cells grown at atmospheric pressure and those grown under 20 mmHg of pressure: HOS cells grown 72 h at 0 vs 20 mmHg, de-pressurized, difference is small
Procedure: HOS cells were pressurized at 0 and 20 mmHg for 72 hours. At the end of this time point the growth membrane was removed and discs were created with a sterile punch. These discs bearing 2000 cells/disc were placed within each of the wells in a Costar 96-well plate (Bio-Rad, Hercules, Calif.). Serial dilutions of doxorubicin were immediately applied to the wells at a dose of 100 μg/ml to 0.00128 μg/ml. These were allowed an exposure time of 24 hours and then washed with PBS and 200 μl growth media replaced for a further 24 hours 25 μl of Alamar blue dye® (BioSource International, Camarillo, Calif.) was added for a further 8 hours and metabolic activity read with a Cytofluor® plate reader (Applied Biosystems, Foster City, Calif.). Metabolic activity was expressed as per manufacturer recommendations (BioSource International, Camarillo, Calif.). The experiment was repeated using cells grown at 72 hours under pressure, de-pressurized to atmospheric pressure and then trypsinized and seeded at 2000 cells per well and allowed 24 hours to gain attachment. They were then treated with doxorubicin. Assessment was completed as above. […] Student's t-test was used to assess for significance between the results of chemosensitivity at 0 and 20 mmHg. […] Each data point represents the mean of six readings with error bars representing the standard deviation.

HOS cells [2] = experiment: Chemosensitivity testing in a pressurized cassette-HPA system (in situ cell counts); settings: for differences in growth between the pressurized and non-pressurized systems: 0 vs 20 mmHg, 72 h under pressure with drug, at 0.16 and 1 μ/ml; for difference in viability (cell counts under pressure) between 0 and 20 mmHg: testing under pressure, clinically relevant range of 0.04 to 4 μ/ml
Procedure: To investigate chemosensitivity in a pressurized system, 1.5×10^4 HOS cells were seeded in 16 cassettes. These were incubated for 24 hours and baseline counts were made at the end of 24 hours. Serial dilutions of doxorubicin were added at a dose of 0 μg/ml, 0.16 μg/ml, 1 μg/ml and 8 μg/ml. […] Two sets were provided for each drug at 0 and 20 mmHg. Pressurization proceeded for 72 hours as described above. At the end of this time point, in situ cell growth over the identical 5 high power fields recorded after the first 24 hours were made. The observer was blinded to the identity of the sample being read. Cell growth was expressed as a ratio between the 72 hour and baseline 24 hour counts. This was then normalized to the readings for cells that were not exposed to chemotherapy (i.e. 0 μg/ml). This was done to account for cell growth changes that could result from the pressure effect itself. Student's T-test was used to assess for significance between the results of chemosensitivity at 0 and 20 mmHg. […] Each data point represents the mean of five readings with error bars representing the standard error of the mean.

HOS cells [3] = experiment: Chemosensitivity testing of membrane discs bearing pressurized HOS cells immediately exposed to drug in 96-well plate (Alamar blue); settings: HOS cells grown under pressure 72 h, cut from membranes, 24 h drug exposure at atmospheric pressure, no 24 h de-pressurization
Procedure: HOS cells were pressurized at 0 and 20 mmHg for 72 hours. At the end of this time point the growth membrane was removed and discs were created with a sterile punch. These discs bearing 2000 cells/disc were placed within each of the wells in a Costar 96-well plate (Bio-Rad, Hercules, Calif.). Serial dilutions of doxorubicin were immediately applied to the wells at a dose of 100 μg/ml to 0.00128 μg/ml. These were allowed an exposure time of 24 hours and then washed with PBS and 200 μl growth media replaced for a further 24 hours 25 μl of Alamar blue dye® (BioSource International, Camarillo, Calif.) was added for a further 8 hours and metabolic activity read with a Cytofluor® plate reader (Applied Biosystems, Foster City, Calif.). Metabolic activity was expressed as per manufacturer recommendations (BioSource International, Camarillo, Calif.).

Structure (SMILES)	difference in the ED50 between cells grown at atmospheric pressure and those grown under 20 mmHg of pressure (HOS cells [1])	differences in growth between the pressurized and non-pressurized systems (HOS cells [2])	difference in viability (cell counts under pressure) between 0 and 20 mmHg (HOS cells [2])	difference in cytotoxicity between cells grown at 0 and 20 mmHg (HOS cells [1]; depressurized HOS cells, drug concentration range 0.04 to 4 μg/ml)	difference in sensitivity between cells grown at 0 and 20 mmHg, membranes immediately exposed to drug (HOS cells [3])
N.N.[Cl][Pt][Cl] [cisplatin]	statistically significant difference	marked differences in growth	dramatic difference in viability	–	–
COc1cccc2c1C(=O)c1c(O)c3c(c(O)c1C2=O)C[C@@](O)(C(=O)CO)C[C@@H]3O[C@H]1C[C@H](N)[C@H](O)[C@H](C)O1 [doxorubicin]	statistically significant difference	marked differences in growth	dramatic difference in viability	statistically significant difference in cytotoxicity	this difference became more pronounced; also recorded: dramatic differences to sensitivity

Reference: patent publication US7435587B2, “Apparatus for growing cells under variable hydrostatic pressures” (Memorial Sloan-Kettering Cancer Center, priority 2002, dated 2008)
